{"source": "paper PMC12858405", "about": "“Ideal efficacy photoswitching for chromocontrol of TRPC4/5 channel functions in live tissues” (Nature Chemical Biology, 2026)", "system": "mouse small intestine segments", "experiment": "Spontaneous motility of atropine-paralysed intestinal segments, video imaging with 365/447 nm", "description": "Müller, Niemeyer, et al., Schaefer & Thorn-Seshold 2025: Ideal Efficacy Photoswitching of TRPC4/5 in Tissue 7 Spontaneous motility and isometric contractility (Fig. 6)\nAfter sacrificing mice in accordance to the European (Council Directive 2010/63/EU) and German guidelines for the welfare of experimental animals, the abdomen was opened, and intestinal loops were mobilised. Ileal segments were obtained starting 10 mm from the ileocoecal junction. Ileal segments with a length of 3 mm for myography experiments or with a length of 8-12 mm for observation of spontaneous movement were cut out and flushed with carbogen-equilibrated KBRS.\nThe adventitial layer was carefully peeled off, using a pair of forceps. […]\nSpontaneous motility: for macroscopic observation, ileal segments were placed in KBRS-filled 24-well plates, and treated with 300 nM atropine (which has long been known to override the inherent oscillatory bias of the gut nerve system to paralyse digestion) or its solvent. […] A time-lapse movie was recorded, and 365 nm or 447 nm LED were electronically switched to induce photoswitching. The recorded image stack was cut into substacks, covering a single well, each. The temporal variance of the shadow cast by the segments was calculated for consecutive 1 s bins and taken as a measure to obtain the temporal signature of the motility. […]", "data": [{"smiles": "Cn1c(=O)n(CCCO)c(=O)c2c1nc(Oc1ccc(N=Nc3ccccc3)c(OC(F)(F)F)c1)n2Cc1ccc(Cl)cc1", "note": "[AzPico]", "values": [{"measurement": "Response of atropine-paralysed small intestine segments to UV illumination", "setting": "10 nM, 300 nM atropine, stopped by 447 nm", "result": "initiated vigorous motions"}, {"measurement": "Photoresponse of colon segments", "setting": "treated colon segments", "result": "no photoresponse"}]}]}
